Patent US20230201217A1 (priority 2019, published 2023)

Assays:
male CD-1 mice = assay: Cardiovascular radiotelemetry in conscious CD-1 mice; type: in vivo, mouse
Source text: The purpose of this study was to explore the physiological changes associated with mortality. Animals were implanted with a radiotelemetry transmitter in the peritoneal cavity with the catheter inserted in the femoral artery and the sensor tip positioned in the abdominal aorta. […] Within one hour of dosing, average heart rate (FIG. 14) decreased about 50%, and significant decreases in systolic (FIG. 15) and diastolic blood pressure (FIG. 16). In addition, body temperature generally dropped at each collection time point, reaching a maximum difference from baseline at 120 minutes post-dose (average change up to 6.5° C.). Following administration of the 200 mg/kg dose, body temperature continued to drop (up to 10.5° C.) until all mice died (˜12 hours post-dose). These changes in body temperature were considered test article-related and correlated to the observed changes in heart rate. Terminally, there was a further decrease in all of the parameters, with the rectal temperatures falling to as low as 22° C. before the mice died. Observed effects on behavior and activity included tremors, twitches, abnormal gait, lethargy, decreased motor activity, increased response to touch and startle, seizures, gasping and slow respirations, exophthalmia, and stupor.

[1] = test system: human peripheral blood lymphocytes (HPBL); assay: In vitro chromosome aberration test; type: cell-based
Protocol: Based on precipitates observed in the range-finding assay, concentrations used during the definitive chromosome aberration assay were a) 7.5, 15, 25, 50, 100, and 150 μg/mL in the 3-hour treatments with and without metabolic activation, and b) 1.0, 15, 25, 30, 35, 40, 45, 50, 55, 60, and 75 μg/mL in the 22-hour treatment without metabolic activation. These cultures along with the vehicle and one concentration of positive control for each treatment condition were analyzed for aberrations. Structural chromosome aberrations were scored for each concentration from a total of 200 metaphase cells (when possible) or ≥30 aberrant cells. Numerical aberrations were evaluated in 400 metaphase cells per concentration.

Solubility = type: physicochemical
Source text: 18-MC HCl can be supplied as a dry powder packaged in double plastic bags in an HDPE bottle with desiccant. The 18-MC HCl can be formulated at the clinical site into a solution for dosing patients. […] Based on the properties of the compound, it can also be formulated in a solid oral formulation (tablet, capsule, sachets, granules, etc.)
Most preferably, an oral dose of the composition is used. An oral dosing formulation was validated by a GLP study.

Mu opioid receptor = Mu opioid receptor (Homo sapiens, UniProt P35372); assay: In vitro radio-ligand assay; type: binding; details: 10 μM
Sequence of Mu opioid receptor (P35372 whole entry, species assumed): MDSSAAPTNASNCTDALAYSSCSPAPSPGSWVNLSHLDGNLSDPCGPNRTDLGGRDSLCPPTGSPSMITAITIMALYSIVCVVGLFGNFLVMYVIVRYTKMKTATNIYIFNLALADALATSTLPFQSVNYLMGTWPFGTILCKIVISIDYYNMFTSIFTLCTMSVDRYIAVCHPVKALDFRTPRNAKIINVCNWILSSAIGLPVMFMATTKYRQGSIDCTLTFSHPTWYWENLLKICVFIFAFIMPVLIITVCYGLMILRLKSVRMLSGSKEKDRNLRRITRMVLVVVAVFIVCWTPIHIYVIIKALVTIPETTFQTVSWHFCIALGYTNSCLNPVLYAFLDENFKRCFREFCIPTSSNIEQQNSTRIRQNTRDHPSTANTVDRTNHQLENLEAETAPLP
Protocol: (§1) The binding potential of 18-MC with 64 neurotransmitter-related binding sites was evaluated (TABLE 2).

[2] = test system: adrenergic alpha-1 receptor; assay: In vitro radio-ligand assay; type: binding; details: 10 μM
Protocol: as §1

sodium site 2 channel = assay: In vitro radio-ligand assay; type: binding; details: 10 μM
Protocol: as §1

plasma protein = assay: Plasma protein binding; type: in vitro ADME, Monkey
Source text: There is no information on the protein binding of any of the metabolites.

healthy volunteers = assay: Phase 1 first-in-human study, safety and tolerability; type: in vivo; parameters: key to AE Urinary tract infection (subject A1): Study Drug related / AE Retro-orbital headache (subject A2): Study Drug related / AE Hot coffee burn in hand and right forearm (subject A3): Study Drug related / AE Dry cough (subject A4): Study Drug related / AE Body pain (subject A5): Study Drug related / AE Occipital and frontal headache (subject A6): Study Drug related / AE Nausea (subject A1): Study Drug related / AE Arterial Hypotension (subject A1): Study Drug related / AE Pain - submandibular lymph node (subject A1): Study Drug related: 1 Not related; 2 Possible; 3 Probable
Protocol: None discontinued the study.
Safety was monitored by reported adverse events, hematology, serum chemistries (including electrolytes, renal and liver function, urinalysis, ECG and vital signs. In addition, a neurological examination (mini-mental status exam) including assessment for abnormal eye movement, nystagmus, tremors, reflexes, upper and lower extremity strength, distal sensor perception, intention tremor, the Romberg test, excessive somnolence and mental status were performed.

[3] = Pre-clinical pharmacokinetics, all species tested; type: in vivo
Protocol: In all the species tested in pre-clinical studies, 18-MC is rapidly absorbed following oral administration with Tmax occurring in less than 0.5 hours following oral administration. After oral administration, the elimination of 18-MC is multi-compartmental. In plasma, 18-MC is highly protein bound (92% to 98%). 18-MC is also rapidly and extensively metabolized, presumably by first pass metabolism. At least […] different metabolites have been detected both in vitro and in vivo, further described below (M1-M9, P1-P3). The major metabolites (those with exposure greater than 10% of the total drug related material) appear to change with the dose and duration of dosing. Major metabolites include M2, M4, M5, M8, M9 and P2 depending on the animal species tested, and the dose and duration of dosing.
18-MC is rapidly absorbed and distributed into the brain and fat tissues in rats dosed with 40 mg/kg p.o. or i.p. The estimated volume of distribution is 8 L/kg. 18-MC levels in fat were 4.2 μM and 2.5 μM at 2 hours and 24 hours, respectively. […] On oral administration, it appears that the major metabolites are either M4 or M5, depending on the animal species tested. M4 and M5 are the primary circulating drug species because they are present at proportions greater than 18-MC. […] In the animal species tested its half-life is less than 2 hours at lower doses. […]

CYP2B6 = CYP2B6 (Homo sapiens, UniProt P20813); details: recombinant enzyme
Sequence of CYP2B6 (P20813 whole entry): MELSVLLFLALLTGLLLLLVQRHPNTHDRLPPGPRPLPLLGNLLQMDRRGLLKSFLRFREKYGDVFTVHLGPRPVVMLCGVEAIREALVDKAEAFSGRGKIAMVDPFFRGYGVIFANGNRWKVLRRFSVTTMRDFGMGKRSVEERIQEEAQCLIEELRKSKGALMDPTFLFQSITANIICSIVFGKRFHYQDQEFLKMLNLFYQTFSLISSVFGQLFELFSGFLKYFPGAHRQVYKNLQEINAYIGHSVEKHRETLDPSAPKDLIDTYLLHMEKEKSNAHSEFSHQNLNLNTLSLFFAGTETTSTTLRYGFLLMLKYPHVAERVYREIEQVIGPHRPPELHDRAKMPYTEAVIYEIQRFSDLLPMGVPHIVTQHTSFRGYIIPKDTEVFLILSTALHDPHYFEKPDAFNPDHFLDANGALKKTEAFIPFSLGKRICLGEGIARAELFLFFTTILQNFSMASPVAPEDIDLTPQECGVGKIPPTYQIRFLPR
Protocol: Control incubations were performed for each assay with appropriate positive inhibitory controls.

## COCCC1CC2CN3CCc4c([nH]c5ccccc45)C(C(=O)OC)(C2)C13.Cl (centres unmarked) [18-MC HCl, 18-Methoxycoronaridine hydrochloride]
Male CD-1 mice; 100 mg/kg, 120 minutes post-dose
  average change in body temperature from baseline: up to 6.5 °C
Male CD-1 mice; after 100 mg/kg oral dose
  mortality: Two of the 6 animals died
Male CD-1 mice; after the 200 mg/kg dose (8 hours after 100 mg/kg)
  mortality: all of the other animals died
Male CD-1 mice; before the mice died
  rectal temperature, terminal: ≥ 22 °C
Male CD-1 mice; following the 200 mg/kg dose
  drop in body temperature: up to 10.5 °C
Male CD-1 mice; within one hour of dosing
  decrease in average heart rate: about 50%
[1]; with metabolic activation
  structural chromosome aberrations: positive
[1]; without metabolic activation
  structural chromosome aberrations: negative
Solubility
  solubility in dimethyl sulfoxide (DMSO): freely soluble
Solubility; 5% dextrose (pH 3.0)
  maximum solubility: 40 mg/mL
Solubility; neutral and alkaline pH
  solubility in aqueous solution: poorly soluble

## COCC[C@H]1CC2CN3CCc4c([nH]c5ccccc45)[C@](C(=O)OC)(C2)[C@H]13 [18-MC, 18-methoxycoronaridine]
Mu opioid receptor
  binding: binding was seen
[2]
  binding: binding was seen
Sodium site 2 channel
  binding: binding was seen
Plasma protein; 200 ng/mL
  % Bound Mean ± SD: 98.4 ± 0.643%
Plasma protein; 600 ng/mL
  % Bound Mean ± SD: 97.7 ± 0.100%
Plasma protein; 5,000 ng/mL
  % Bound Mean ± SD: 97.2 ± 0.100%
Plasma protein; average of 3 concentrations
  Average % Bound Mean ± SD: 97.8 ± 0.603%
Healthy volunteers; 20 mg single dose, 4 mg twice
  serious adverse events: No serious adverse events occurred
Healthy volunteers; FIH study
  dose at which safe in healthy volunteers: up to 20 mg
Healthy volunteers; day noted 1
  AE Arterial Hypotension (subject A1): Severity: 1
  AE Arterial Hypotension (subject A1): Study Drug related: 2
  AE Nausea (subject A1): Severity: 1
  AE Nausea (subject A1): Study Drug related: 2
  AE Pain - submandibular lymph node (subject A1): Severity: 1
  AE Pain - submandibular lymph node (subject A1): Study Drug related: 2
  AE Retro-orbital headache (subject A2): Severity: 1
  AE Retro-orbital headache (subject A2): Study Drug related: 2
Healthy volunteers; day noted 2-30
  AE Urinary tract infection (subject A1): Severity: 2
  AE Urinary tract infection (subject A1): Study Drug related: 1
Healthy volunteers; day noted 4
  AE Occipital and frontal headache (subject A6): Severity: 2
  AE Occipital and frontal headache (subject A6): Study Drug related: 1
Healthy volunteers; day noted 4 (CRF entry error)
  AE Dry cough (subject A4): Severity: 1
  AE Dry cough (subject A4): Study Drug related: 3
Healthy volunteers; day noted 7
  AE Hot coffee burn in hand and right forearm (subject A3): Severity: 1
  AE Hot coffee burn in hand and right forearm (subject A3): Study Drug related: 1
Healthy volunteers; day noted 30
  AE Body pain (subject A5): Severity: 1
  AE Body pain (subject A5): Study Drug related: 1
[3]; animal species tested, lower doses, oral
  half-life: less than 2 hours
[3]; oral administration, all the species tested
  Tmax: less than 0.5 hours
CYP2B6
  IC50: > 100 µM
